A word on the EC50: it is the concentration that produces a half-maximal response. As a reminder, the IC50 is the point on the concentration scale where inhibition reaches its midpoint. A word on the AC50: it is the midpoint of the concentration-response curve, whichever way the signal moves.

The results in this text go back to ChEMBL document CHEMBL1201862, “PubChem BioAssay data set” (2004).

The target of test [1] is Neurotensin receptor type 1 (Homo sapiens, UniProt P30989). It is filed as functional.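 Also: Image-based confirmatory dose-response assay measuring agonist activity at NTR1; NTR1-expressing U2OS osteosarcoma cells imaged for beta-arrestin GFP spot formation; agonist potency where compounds increase beta-arrestin recruitment.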
Sequence of Neurotensin receptor type 1 (P30989 whole entry): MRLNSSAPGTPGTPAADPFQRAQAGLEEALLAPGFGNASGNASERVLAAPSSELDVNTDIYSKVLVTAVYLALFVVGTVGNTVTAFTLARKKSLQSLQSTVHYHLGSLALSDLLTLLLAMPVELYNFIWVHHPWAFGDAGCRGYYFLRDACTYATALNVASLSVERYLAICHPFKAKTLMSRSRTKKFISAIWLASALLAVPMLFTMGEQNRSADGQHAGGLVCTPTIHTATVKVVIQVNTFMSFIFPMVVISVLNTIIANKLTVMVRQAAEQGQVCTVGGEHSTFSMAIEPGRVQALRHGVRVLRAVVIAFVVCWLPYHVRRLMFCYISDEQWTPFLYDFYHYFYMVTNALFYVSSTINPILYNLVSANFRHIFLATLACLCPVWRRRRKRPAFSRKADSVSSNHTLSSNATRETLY
The target of test [2] is T1, Coagulation factor XII (Homo sapiens, UniProt P00748).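 Also: activated factor XIIa alpha cleaving a fluorogenic AMC peptide substrate; inhibitor potency from loss of enzyme activity.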
T1 sequence (P00748 whole entry): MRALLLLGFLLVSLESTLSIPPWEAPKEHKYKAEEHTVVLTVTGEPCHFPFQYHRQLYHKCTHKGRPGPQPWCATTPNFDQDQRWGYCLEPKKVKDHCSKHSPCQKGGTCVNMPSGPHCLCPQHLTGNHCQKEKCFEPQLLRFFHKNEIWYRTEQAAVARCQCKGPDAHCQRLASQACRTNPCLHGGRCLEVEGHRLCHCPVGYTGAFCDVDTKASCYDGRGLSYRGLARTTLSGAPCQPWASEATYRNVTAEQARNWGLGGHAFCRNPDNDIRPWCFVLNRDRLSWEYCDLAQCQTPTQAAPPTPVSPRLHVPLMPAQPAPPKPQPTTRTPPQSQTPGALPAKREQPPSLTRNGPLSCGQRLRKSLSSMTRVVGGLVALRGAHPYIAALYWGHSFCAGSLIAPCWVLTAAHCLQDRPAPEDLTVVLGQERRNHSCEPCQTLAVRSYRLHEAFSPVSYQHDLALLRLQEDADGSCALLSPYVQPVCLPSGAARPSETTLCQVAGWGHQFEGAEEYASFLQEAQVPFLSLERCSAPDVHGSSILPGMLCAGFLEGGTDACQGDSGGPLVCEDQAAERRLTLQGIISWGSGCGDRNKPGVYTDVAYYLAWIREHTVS
It is filed as functional.

Test [3] can be described thus: viability of HCT116 lacking mutant beta-catenin – cell-based, human colon tumor, dose response (AID 1045).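 Also: HCT116 colon tumor cells with beta catenin knocked out; cells exposed to compound for 60 hours.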 It is filed as functional.
Test [4] is described as follows: viability of PTEN-deleted HCT116 cells – cell-based, HCT116 PTEN knockout, dose response (AID 1047).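 Also: HCT116 colon tumor cells with PTEN knocked out; cells exposed to compound for 60 hours before readout; potency for loss of cell viability measured by luminescence.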 It is filed as functional.
The target in test [5] is T2, Estrogen receptor (Homo sapiens, UniProt P03372).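 Also: potency for inhibiting coactivator peptide recruitment to the receptor.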
T2 sequence (P03372 whole entry): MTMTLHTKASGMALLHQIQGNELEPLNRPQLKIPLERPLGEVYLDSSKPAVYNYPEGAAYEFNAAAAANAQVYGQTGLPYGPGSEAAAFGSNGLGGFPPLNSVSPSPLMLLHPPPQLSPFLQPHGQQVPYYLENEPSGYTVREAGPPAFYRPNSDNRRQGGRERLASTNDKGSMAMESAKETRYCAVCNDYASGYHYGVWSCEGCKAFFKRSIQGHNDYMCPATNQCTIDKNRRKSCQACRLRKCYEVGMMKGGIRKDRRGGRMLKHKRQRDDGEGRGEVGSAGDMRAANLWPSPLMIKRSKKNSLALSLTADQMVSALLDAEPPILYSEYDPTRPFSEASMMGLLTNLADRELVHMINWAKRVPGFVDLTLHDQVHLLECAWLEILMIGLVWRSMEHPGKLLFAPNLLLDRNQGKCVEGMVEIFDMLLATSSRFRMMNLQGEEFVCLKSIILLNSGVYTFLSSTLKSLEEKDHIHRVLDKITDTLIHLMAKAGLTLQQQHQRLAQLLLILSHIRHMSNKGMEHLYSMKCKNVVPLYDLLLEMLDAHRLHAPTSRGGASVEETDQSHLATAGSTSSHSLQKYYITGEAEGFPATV

The target of test [6] is Keap1/Nrf2 (Homo sapiens, UniProt Q14145). Briefly: disruptors of Keap1 binding to Nrf2 peptide – biochemical, fluorescence polarization, cherry-picked samples, dose response (AID 588683). (In general: Polarisation of emitted light reports the rotation of a fluorescent probe.)
Sequence of Keap1/Nrf2 (Q16236 whole entry): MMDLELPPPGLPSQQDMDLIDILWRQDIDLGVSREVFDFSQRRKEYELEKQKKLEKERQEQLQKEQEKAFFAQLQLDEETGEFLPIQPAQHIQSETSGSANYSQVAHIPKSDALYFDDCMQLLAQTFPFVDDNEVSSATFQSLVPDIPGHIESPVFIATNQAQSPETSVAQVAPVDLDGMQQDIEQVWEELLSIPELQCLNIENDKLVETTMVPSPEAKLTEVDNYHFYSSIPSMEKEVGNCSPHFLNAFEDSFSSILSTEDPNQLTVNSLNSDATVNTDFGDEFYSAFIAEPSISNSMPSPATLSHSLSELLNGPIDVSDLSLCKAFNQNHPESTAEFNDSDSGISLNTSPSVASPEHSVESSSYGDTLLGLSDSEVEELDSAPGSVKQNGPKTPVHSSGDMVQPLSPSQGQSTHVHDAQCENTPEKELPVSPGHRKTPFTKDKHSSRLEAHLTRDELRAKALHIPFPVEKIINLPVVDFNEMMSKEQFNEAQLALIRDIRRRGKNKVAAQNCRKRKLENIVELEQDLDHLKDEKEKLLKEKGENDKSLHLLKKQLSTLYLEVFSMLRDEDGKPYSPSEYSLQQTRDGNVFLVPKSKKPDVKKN
Sequence of Keap1/Nrf2 (Q14145 whole entry): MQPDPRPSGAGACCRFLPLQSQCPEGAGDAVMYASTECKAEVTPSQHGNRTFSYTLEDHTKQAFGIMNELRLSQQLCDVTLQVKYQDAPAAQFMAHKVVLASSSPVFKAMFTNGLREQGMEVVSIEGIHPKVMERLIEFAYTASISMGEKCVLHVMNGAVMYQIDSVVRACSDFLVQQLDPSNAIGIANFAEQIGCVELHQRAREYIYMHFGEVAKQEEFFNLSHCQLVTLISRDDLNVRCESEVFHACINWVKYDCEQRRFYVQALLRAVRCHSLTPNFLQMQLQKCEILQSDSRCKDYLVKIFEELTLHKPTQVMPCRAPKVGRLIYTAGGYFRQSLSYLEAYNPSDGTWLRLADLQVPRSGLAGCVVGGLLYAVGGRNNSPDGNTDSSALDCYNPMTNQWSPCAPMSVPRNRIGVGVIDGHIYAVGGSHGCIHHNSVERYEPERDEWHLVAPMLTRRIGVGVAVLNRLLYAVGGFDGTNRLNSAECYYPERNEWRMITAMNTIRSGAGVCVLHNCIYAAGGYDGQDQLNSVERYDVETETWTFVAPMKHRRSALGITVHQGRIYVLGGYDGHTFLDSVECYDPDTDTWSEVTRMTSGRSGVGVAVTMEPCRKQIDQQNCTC
Test [7] has as its target Voltage-dependent T-type calcium channel subunit alpha-1H (Homo sapiens, UniProt O95180). It is filed as functional.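 Also: channel activity triggered by adding a high calcium stimulation buffer.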
The target of test [8] is T3, Aminopeptidase N (Plasmodium falciparum FcB1/Columbia, UniProt O96935).
T3 sequence (O96935 whole entry): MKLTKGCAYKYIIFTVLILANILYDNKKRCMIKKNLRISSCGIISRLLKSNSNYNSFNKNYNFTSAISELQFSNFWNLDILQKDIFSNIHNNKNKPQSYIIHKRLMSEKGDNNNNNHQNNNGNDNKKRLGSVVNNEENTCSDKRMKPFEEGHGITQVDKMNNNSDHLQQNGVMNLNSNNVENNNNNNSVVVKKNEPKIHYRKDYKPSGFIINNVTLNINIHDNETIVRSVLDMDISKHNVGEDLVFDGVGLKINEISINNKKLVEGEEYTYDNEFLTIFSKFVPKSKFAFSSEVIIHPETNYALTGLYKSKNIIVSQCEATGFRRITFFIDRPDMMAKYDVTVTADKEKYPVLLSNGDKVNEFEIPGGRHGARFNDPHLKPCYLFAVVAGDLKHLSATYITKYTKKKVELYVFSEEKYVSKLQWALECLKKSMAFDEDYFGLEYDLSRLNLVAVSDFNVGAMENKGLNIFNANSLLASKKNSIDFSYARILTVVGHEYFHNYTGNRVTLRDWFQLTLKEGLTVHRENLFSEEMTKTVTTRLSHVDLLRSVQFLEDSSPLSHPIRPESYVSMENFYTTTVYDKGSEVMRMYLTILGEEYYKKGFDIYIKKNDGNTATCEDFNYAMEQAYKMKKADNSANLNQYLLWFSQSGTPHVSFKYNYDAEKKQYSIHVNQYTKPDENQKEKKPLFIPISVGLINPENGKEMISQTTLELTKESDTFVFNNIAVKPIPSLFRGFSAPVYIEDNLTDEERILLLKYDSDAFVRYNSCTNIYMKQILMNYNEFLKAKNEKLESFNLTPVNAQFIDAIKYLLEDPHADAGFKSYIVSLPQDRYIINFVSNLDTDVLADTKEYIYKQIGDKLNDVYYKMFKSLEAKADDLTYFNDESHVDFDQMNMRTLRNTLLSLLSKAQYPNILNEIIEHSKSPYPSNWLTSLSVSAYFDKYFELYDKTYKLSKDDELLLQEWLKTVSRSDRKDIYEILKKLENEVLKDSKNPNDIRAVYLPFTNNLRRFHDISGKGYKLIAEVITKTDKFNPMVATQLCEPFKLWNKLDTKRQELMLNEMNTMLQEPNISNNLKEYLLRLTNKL
The test can be described thus: malaria alanyl aminopeptidase activity blockers – biochemical, fluorogenic H-Leu-NHMec substrate, 1536-well (AID 1445). More on the design: species or system Plasmodium falciparum 3D7, 3D7.

Test [9] has as its target Polyadenylate-binding protein 1 (Homo sapiens, UniProt P11940). The test can be described thus: blockers of PABP interaction with poly(A) – biochemical, fluorescence polarization, […] (AID 2014).
Test [10] deals with Eukaryotic translation initiation factor 4H (Homo sapiens, UniProt Q15056). Briefly: eIF4H binding inhibition – biochemical, uHTS, fluorescence polarization, translation initiation inhibitor project, primary screen (AID 2012).
The nature of test [11]: Luminescence Cell-Based Dose Response HTS to Identify Inhibitors of 5'UTR Stem-Loop Driven Prion Protein mRNA Translation in H4 Neuroglioblastoma Cells. [Related pubchem assays: 1827 (Project Summary), 1813 (Primary HTS)]. It is filed as functional.
A short description of test [12]: HEK-293T cell viability reduction – luminescence, B-cell screen hits, cytotoxicity control for BCR NF-kB inhibitor project, dose response (AID 489021).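 Also: HEK-293T cells carrying an NF-kB luciferase reporter; cells exposed to compound for about 14 hours before viability readout.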 In kind it is functional, cell-based.
Test [13] in a line: luciferase reporter signal suppression in cells – H4 neuroglioma cells, luminescence, dose response (AID 1990). It is filed as functional, cell-based.
Test [14] in a line: alpha-synuclein stem-loop luciferase translation blockers – H4 neuroglioma cells, luminescence, confirmation (AID 1988). In kind it is functional, cell-based.
The target of test [15] is G-protein coupled receptor 35 (Homo sapiens, UniProt Q9HC97). Briefly: inhibition of zaprinast-stimulated GPR35 beta-arrestin translocation – imaging, U2OS, beta-arrestin-GFP, zaprinast agonist, primary screen (AID 2058).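 Also: antagonist potency meaning inhibition of agonist-induced arrestin redistribution.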 It is filed as functional.
Sequence of G-protein coupled receptor 35 (Q9HC97 whole entry): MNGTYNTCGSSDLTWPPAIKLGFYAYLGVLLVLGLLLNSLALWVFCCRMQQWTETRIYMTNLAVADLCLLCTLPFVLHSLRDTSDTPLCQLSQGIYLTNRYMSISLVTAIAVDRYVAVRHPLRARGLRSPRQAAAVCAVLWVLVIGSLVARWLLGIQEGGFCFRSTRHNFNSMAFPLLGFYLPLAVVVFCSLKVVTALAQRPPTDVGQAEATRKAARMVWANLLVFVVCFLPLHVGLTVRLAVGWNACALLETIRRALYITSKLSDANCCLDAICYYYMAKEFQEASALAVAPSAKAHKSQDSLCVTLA
Test [16] in a line: Luminescence Cell-Based Dose Retest to Confirm Inhibitors of Cancer Stem Cells. [Related pubchem assays (depositor defined):AID2717, AID2721]. It is filed as functional. To be noted: Homo sapiens.
For test [17], the system named is HeLa. The test can be described thus: viability loss in HeLa cells – cell-based, 24 h, cherry-picked samples, cytotoxicity control, dose response (AID 504726).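 Also: potency for cytotoxicity as loss of luminescence signal.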 In kind it is functional. The settings on record: Homo sapiens.
Test [18] addresses T4, Phosphomannomutase 2 (Homo sapiens, UniProt O15305).
T4 sequence (O15305 whole entry): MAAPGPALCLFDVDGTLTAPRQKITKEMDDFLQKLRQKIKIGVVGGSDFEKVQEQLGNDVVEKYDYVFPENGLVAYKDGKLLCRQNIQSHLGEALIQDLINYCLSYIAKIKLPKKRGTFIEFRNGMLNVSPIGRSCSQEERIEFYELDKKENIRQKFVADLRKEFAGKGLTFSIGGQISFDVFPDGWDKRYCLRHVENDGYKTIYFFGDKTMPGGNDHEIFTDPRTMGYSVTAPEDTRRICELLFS
Briefly: Counter screen SAR assay for PMM2 inhibitors via a fluorescence intensity assay. [Related pubchem assays (depositor defined):AID1545, AID1574]. (In general: The purpose of a counterscreen is to sort out artefacts and off-target activity.)

For test [19], the target named is T5, Mannose-6-phosphate isomerase (Homo sapiens, UniProt P34949).
T5 sequence (P34949 whole entry): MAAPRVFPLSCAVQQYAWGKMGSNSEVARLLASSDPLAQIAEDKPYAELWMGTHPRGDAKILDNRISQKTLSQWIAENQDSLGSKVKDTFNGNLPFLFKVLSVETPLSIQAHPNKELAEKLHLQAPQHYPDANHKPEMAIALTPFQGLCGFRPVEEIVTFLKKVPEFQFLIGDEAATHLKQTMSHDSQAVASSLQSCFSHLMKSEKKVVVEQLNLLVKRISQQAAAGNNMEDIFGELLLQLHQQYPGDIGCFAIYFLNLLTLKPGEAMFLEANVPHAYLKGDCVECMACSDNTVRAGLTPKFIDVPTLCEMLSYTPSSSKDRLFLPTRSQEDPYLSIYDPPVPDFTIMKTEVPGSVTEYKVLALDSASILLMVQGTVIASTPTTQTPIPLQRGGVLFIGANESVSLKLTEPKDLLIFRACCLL
The test can be described thus: phosphomannose isomerase inhibition – biochemical, fluorescence intensity, confirmation (AID 1535).

“And” between values parts separate entries of the source, which are not always exact repeats. Equal values may be shown once. The source made the active and inactive calls. A value given as a limit tells only on which side of the number the result lay.

Sequence of Voltage-dependent T-type calcium channel subunit alpha-1H (O95180 whole entry): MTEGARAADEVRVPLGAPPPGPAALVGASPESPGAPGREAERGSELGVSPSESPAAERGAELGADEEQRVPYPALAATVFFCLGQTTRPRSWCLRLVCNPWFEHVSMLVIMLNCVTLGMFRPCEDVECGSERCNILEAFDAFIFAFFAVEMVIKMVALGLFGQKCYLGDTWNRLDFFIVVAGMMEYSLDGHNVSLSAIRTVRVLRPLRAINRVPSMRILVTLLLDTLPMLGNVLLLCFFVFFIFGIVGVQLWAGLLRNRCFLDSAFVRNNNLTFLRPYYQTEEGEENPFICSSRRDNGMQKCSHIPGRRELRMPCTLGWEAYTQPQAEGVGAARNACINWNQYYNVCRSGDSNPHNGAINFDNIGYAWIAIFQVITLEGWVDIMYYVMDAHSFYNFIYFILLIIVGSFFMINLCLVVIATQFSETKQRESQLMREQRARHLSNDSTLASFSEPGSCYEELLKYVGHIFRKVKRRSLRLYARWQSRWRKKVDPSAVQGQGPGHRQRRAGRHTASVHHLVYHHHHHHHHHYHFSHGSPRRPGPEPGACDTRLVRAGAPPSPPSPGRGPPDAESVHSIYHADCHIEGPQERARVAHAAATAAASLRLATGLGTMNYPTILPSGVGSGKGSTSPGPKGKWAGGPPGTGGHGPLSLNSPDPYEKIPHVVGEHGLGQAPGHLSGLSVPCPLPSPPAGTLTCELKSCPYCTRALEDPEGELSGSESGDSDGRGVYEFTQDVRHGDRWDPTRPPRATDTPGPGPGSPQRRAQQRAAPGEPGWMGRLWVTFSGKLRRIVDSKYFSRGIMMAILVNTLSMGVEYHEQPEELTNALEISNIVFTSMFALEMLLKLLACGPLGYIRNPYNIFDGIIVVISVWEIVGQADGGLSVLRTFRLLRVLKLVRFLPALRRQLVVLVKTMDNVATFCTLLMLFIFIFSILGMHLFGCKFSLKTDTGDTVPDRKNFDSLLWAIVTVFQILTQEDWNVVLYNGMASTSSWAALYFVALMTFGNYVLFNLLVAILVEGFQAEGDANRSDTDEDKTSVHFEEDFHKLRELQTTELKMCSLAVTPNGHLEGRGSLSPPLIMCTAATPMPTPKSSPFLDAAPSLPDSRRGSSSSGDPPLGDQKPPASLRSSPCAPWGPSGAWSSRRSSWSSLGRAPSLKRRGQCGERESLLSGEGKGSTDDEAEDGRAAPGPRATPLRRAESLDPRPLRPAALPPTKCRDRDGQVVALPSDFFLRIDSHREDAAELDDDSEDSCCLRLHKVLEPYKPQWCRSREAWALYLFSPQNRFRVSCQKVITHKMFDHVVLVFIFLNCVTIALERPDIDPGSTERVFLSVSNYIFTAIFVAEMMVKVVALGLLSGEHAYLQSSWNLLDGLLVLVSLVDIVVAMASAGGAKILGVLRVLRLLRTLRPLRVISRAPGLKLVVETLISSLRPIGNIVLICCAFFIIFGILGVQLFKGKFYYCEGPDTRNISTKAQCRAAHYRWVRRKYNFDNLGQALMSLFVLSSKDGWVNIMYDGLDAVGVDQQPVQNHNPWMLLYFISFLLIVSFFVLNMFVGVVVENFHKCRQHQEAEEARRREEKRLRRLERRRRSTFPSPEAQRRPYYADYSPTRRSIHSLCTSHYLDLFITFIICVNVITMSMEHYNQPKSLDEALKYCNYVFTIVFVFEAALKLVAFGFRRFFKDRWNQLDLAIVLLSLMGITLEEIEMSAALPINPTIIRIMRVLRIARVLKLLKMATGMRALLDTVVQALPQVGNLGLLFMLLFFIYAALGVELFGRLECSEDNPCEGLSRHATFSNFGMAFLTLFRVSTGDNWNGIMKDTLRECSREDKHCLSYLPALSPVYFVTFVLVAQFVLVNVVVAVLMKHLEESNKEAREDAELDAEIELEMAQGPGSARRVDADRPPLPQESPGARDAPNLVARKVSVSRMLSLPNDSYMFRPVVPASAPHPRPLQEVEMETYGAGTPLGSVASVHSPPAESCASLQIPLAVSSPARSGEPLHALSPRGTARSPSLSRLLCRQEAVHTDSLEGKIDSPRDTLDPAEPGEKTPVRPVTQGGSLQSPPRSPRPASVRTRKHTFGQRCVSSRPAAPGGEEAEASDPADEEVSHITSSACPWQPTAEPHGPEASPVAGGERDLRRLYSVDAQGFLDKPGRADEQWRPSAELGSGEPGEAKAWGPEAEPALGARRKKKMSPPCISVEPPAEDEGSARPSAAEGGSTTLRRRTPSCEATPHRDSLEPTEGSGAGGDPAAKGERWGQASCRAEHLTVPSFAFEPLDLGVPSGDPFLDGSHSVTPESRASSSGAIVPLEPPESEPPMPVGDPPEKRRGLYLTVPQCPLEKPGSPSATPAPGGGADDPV
Sequence of Polyadenylate-binding protein 1 (P11940 whole entry): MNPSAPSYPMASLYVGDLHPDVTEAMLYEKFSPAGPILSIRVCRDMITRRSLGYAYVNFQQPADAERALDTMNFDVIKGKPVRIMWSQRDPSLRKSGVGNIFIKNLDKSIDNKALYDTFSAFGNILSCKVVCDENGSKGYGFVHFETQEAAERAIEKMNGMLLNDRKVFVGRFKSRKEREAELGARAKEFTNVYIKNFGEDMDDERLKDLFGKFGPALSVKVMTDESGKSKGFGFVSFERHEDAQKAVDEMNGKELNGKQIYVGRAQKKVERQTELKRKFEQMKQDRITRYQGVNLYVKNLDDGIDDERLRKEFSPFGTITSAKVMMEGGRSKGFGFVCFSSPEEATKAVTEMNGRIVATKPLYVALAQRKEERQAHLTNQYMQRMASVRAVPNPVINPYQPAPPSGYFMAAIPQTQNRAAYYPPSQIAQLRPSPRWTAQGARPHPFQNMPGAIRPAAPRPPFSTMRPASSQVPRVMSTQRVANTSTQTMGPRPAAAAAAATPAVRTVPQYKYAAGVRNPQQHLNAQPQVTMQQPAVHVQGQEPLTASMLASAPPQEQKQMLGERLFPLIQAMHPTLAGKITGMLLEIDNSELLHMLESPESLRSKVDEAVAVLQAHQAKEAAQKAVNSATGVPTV

Regarding `COc1cc2c3nnc(-c4ccc(F)cc4)c-3cn(Cc3cccc(F)c3)c2cc1OC`, the concentration giving a half-maximal response (EC50) in [1] was 3.59 µM (active).

For `Cc1ccc(N/C=C2/C(=O)N(c3ccc4c(c3)OCO4)C(=O)c3ccccc32)cc1`, the values for the IC50 in test [2] and in test [5] were > 50 µM (inactive) and 19.8 µM (active), respectively. Also, the values for the EC50 in test [3] and in test [4] were 9.32 µM (active) and 8.15 µM (active), respectively.

Consider `c1ccc2c(c1)CCCN2Cc1nnnn1CC1CCCO1` (stereo not given), for which the AC50 in test [6] was > 52 µM (inactive).

`CCOC(=O)c1cnn(-c2ccccc2)c1-n1cccc1C(=O)C(=O)Nc1ccc(F)cc1`: in [7], the EC50 is 6.1 µM (active).

Regarding `CCOC(=O)CSc1snnc1-c1ccccc1`, the IC50 in test [2] was > 50 µM (inactive).

Regarding `c1ccc(-c2noc(CSc3nnnn3-c3ccccc3)n2)cc1`, the EC50 in [7] was 8.32 µM (active).

Take `CCN(CC)Cc1c(O)ccc2c(C)c(CC(=O)OC)c(=O)oc12`: the 50% inhibitory concentration (IC50) in test [8] was 40.4 µM (active); in [9], > 100 µM (inactive); in test [10], > 100 µM (inactive).

For the molecule `Cc1nc2cc(-c3cccc(F)c3)nn2c(C)c1CCC(=O)N1CCC2(CC1)OCCO2`, the EC50 was 16.6 µM (active) in test [11], 10.1 µM (active) in test [13] and 15.4 µM (active) in test [14]. Besides, the IC50 in [12] is > 80 µM (inactive).

On to `CCOC(=O)C1CCN(c2ncnc3c2cnn3-c2ccc(Cl)cc2)CC1`, for which the IC50 in [12] was > 80 µM (inactive).

Take `CC(C)CSC1=NSC2=NC(=O)/C(=C\c3coc4ccccc4c3=O)C(=N)N12`: in test [15], the IC50 is 23.3 µM (inactive).

As to `CCN1C(=O)c2cccc3c(S(=O)(=O)N4CCC(C)CC4)ccc1c23`, the IC50 in [12] is > 80 µM (inactive).

Consider `Cc1cc(C)c2c(c1)/C(=C/C(=O)c1ccc(Br)s1)C(=O)N2`, for which, in test [16], the AC50 was 2.22 µM (active). Further, in [1], the 50% effective concentration (EC50) is 6.24 µM (active).

Take `Cc1ccc(NC(=O)c2ccc(Cl)c(S(=O)(=O)N3CCc4ccccc43)c2)nc1`: in test [17], the AC50 is 342 µM (active).

Regarding `Clc1nss/c1=N\c1cccnc1`, the IC50 was > 65.8 µM (active) in test [18]; 16.7 µM (active) and 13.2 µM (active) in test [19].

With `O=C1NC(=O)N(Cc2ccc(F)cc2)C(=O)/C1=C/Nc1ccc(C(=O)O)cc1`, the IC50 in [2] is > 50 µM (inactive).
